Reference: article PMC11253855, “Phosphonodiamidate prodrugs of phosphoantigens (ProPAgens) exhibit potent Vγ9/Vδ2 T cell activation and eradication of cancer cells” (RSC Medicinal Chemistry, 2024)
Read-outs that look alike come from different tables or passages of the source.

What was measured:
Vγ9/Vδ2 T cells [1] = experiment: In vitro Vγ9/Vδ2 T cell activation assay (PBMCs, CD69+ CD25+ by flow cytometry); assay type: cell-based, human; settings: for EC50: Homo sapiens, T-cell, read-out: EC50 (activation of Vγ9/Vδ2 T cells); for Activation of Vγ9/Vδ2 T cells at the highest concentration studied: 100 μM compared with 10 μM
Method: Subsequently, we studied the ability of these HMBP phosphonodiamidate ProPAgens to activate Vγ9/Vδ2 T cells and elicit their lysis of cancer cells in vitro. For this, peripheral blood mononuclear cells (PBMCs) derived from healthy donors and containing Vγ9/Vδ2 T cells were incubated with increasing concentrations of zoledronate or phosphonodiamidate HMBP ProPAgens 9a–d and 14a–d (up to 100 μM) (Fig. 4). Peripheral blood γδ T cells lack appreciable levels of surface CD69 or CD25 under steady-state conditions, but TCR stimulation upregulates both T cell activation markers.[6] Thus, PAg-responsive Vγ9/Vδ2 T cells were then assessed for the upregulation of CD69 and CD25.
Fig. 4 In vitro phosphonodiamidate ProPAgen-mediated activation of Vγ9/Vδ2 T cells, following overnight incubation with zoledronate, and HMBP ProPAgens 9a–d and 14a–d. Levels of activation are represented as % of Vγ9/Vδ2 T cells that are CD69+ CD25+. Data is shown as mean ± SE (n = 4). (A) Activation of Vγ9/Vδ2 stimulated by phosphonodiamidate ProPAgens 9a–d. (B) Activation of Vγ9/Vδ2 stimulated by ProPAgens 14a–d. (C) Activation of Vγ9Vδ2 stimulated by zoledronate (Zol). (D) EC50 values were calculated using GraphPad Prism v9 based on the results of the activation assay.
As for the activation of Vγ9/Vδ2 T cells by the phosphonodiamidate ProPAgens (9a–d and 14a–d), these were initially tested using a concentration range from […] to 100 μM (Fig. 4A and B).
Healthy donor peripheral blood mononuclear cells (PBMCs) were harvested as previously described.[20] To assess the activation of Vγ9/Vδ2 T cells, PBMCs were seeded into U-bottom tissue culture-treated 96-well plates at a cell density of 500 000 cells per well. The cells were incubated with medium-only (control), in the presence of zoledronate at 10 pM to 100 μM, and with HMBP ProPAgens initially at 10 pM to 100 μM, and then at 1 aM to 100 μM for compounds 9d and 14d in a separate experiment. The cells were incubated at 37 °C/5% CO2 overnight, and stained by flow cytometry for the following markers: viability (Zombie Aqua 1 : 400), CD3 (BV421 1 : 100), CD8 (BV650 1 : 200), Vγ9 (PEcy5 1 : 400), Vδ2 (APC 1 : 200), CD69 (PE 1 : 25), CD25 (FITC 1 : 100). The samples were acquired via LSRFortessa X20 (BD Biosciences), and the data obtained were analyzed using FlowJo v10 and GraphPad Prism v9 software.

Vγ9/Vδ2 T cells [2] = settings: read-out: EC50 (activator of Vγ9/Vδ2 T cells), cited from earlier work
T24 cells = experiment: Europium-based (DELFIA) cytotoxicity assay: Vγ9/Vδ2 T cell killing of drug-treated T24 cells; design: species or system human; settings: 10 nM ProPAgen for 2 h versus 10 μM zoledronate; effector : target 80 : 1, 1 h
Method: Encouraged by the potency and specificity of our HMBP phosphonodiamidate ProPAgens, especially 9d and 14d, we subsequently studied their ability to sensitize the urinary bladder carcinoma cell line T24 for targeted killing by in vitro expanded Vγ9/Vδ2 T cells (Fig. 5). In brief, T24 cells were incubated in PBS containing 10 μM zoledronate or the indicated HMBP phosphonodiamidate ProPAgens for a period of 2 h. A positive control for cell death (target cells incubated with 10% v/v DELFIA lysis buffer) and media-only treated control (no drug) was also included. The cells were then washed and cocultured with ex vivo expanded Vγ9/Vδ2 T cells for 1 h at 80 : 1 effector : target ratio, and the level of killing of T24 cells was then measured via time-resolved fluorescence.
Fig. 5 Cytotoxicity of Vγ9/Vδ2 T cells toward the phosphonodiamidate ProPAgen-treated T24 cells. % killing of T24 cells was calculated with this formula: [(experimental release − spontaneous release)/(maximal release − spontaneous release)] × 100. […]
To assess the level of killing of drug-treated and untreated tumour cells, a Europium-based cytotoxicity assay was performed (DELFIA, Perkin Elmer) as described elsewhere.[47] […] Time-resolved fluorescence was then measured using a PHERAstar microplate reader (BMG Labtech). […] The data were processed and analysed using Microsoft Excel and GraphPad Prism v9 software.

[3] = Fig. 1A legend, no reference given

In the case of `C/C(=C\CCP(=O)(N[C@@H](C)C(=O)OC(C)(C)C)N[C@@H](C)C(=O)OC(C)(C)C)CO` [14c, Di-tert-butyl 2,2′-((((E)-5-hydroxy-4-methylpent-3-en-1-yl)phosphoryl)bis(azanediyl))(2S,2′S)-dipropionate], the EC50 (Vγ9/Vδ2 T cells [1]) is reported as 6100 nM.

For `O=P(O)(O)C(O)(Cc1cccnc1)P(=O)(O)O` [risedronate], the EC50 (Vγ9/Vδ2 T cells [2]; [3]) is given as 80 to 5000 nM.

For `C/C(=C\COP(=O)(O)OP(=O)(O)O)CO` [HMBPP, (E)-4-hydroxy-3-methyl-but-2-enyl pyrophosphate], the EC50 (Vγ9/Vδ2 T cells [2]; [3]) is listed as 0.06 to 0.5 nM.

In the case of `C=C(C)CCOP(=O)(O)OP(=O)(O)O` [IPP, isopentenyl pyrophosphate], the EC50 (Vγ9/Vδ2 T cells [2]; [3]) is given as 1000 to 10000 nM.

Compound `COC(=O)[C@H](C)NP(=O)(N[C@@H](C)C(=O)OC)C(F)(F)C/C=C(\C)CO` [9a, Dimethyl 2,2′-((((E)-1,1-difluoro-5-hydroxy-4-methylpent-3-en-1-yl)phosphoryl)bis(azanediyl))(2S,2′S)-dipropionate] has an EC50 (Vγ9/Vδ2 T cells [1]) of 191 nM.

In the case of `O=P(O)(O)C(O)(Cn1ccnc1)P(=O)(O)O` [Zoledronate, zoledronate], the EC50 (Vγ9/Vδ2 T cells [2]; [3]) is listed as 3 to 3000 nM.

With `C/C(=C\CC(F)(F)P(=O)(N[C@@H](C)C(=O)OCc1ccccc1)N[C@@H](C)C(=O)OCc1ccccc1)CO` [9d, Dibenzyl 2,2′-((((E)-1,1-difluoro-5-hydroxy-4-methylpent-3-en-1-yl)phosphoryl)bis(azanediyl))(2S,2′S)-dipropionate] the “Activation of Vγ9/Vδ2 T cells at the highest concentration studied” value (Vγ9/Vδ2 T cells [1]) was “less than that achieved with 10 μM” and the “sensitizing effect for killing of T24 cells by Vγ9/Vδ2 T cells” value (T24 cells) was “much more potent”.

`C/C(=C\CC(F)(F)P(=O)(N[C@@H](C)C(=O)OC(C)(C)C)N[C@@H](C)C(=O)OC(C)(C)C)CO` [9c, Di-tert-butyl 2,2′-((((E)-1,1-difluoro-5-hydroxy-4-methylpent-3-en-1-yl)phosphoryl)bis(azanediyl))(2S,2′S)-dipropionate] gave an EC50 (Vγ9/Vδ2 T cells [1]) of 1500 nM.

In the case of `C/C(=C\COP(=O)(O)O)CO` [HMBP, (E)-4-Hydroxy-3-methylbut-2-enyl monophosphate], the EC50 (Vγ9/Vδ2 T cells [2]) is listed as 4000 nM.

Compound `C/C(=C\CCP(=O)(N[C@@H](C)C(=O)OC(C)C)N[C@@H](C)C(=O)OC(C)C)CO` [14b, Diisopropyl 2,2′-((((E)-5-hydroxy-4-methylpent-3-en-1-yl)phosphoryl)bis(azanediyl))(2S,2′S)-dipropionate] has an EC50 (Vγ9/Vδ2 T cells [1]) of 87 nM.

For `C/C(=C\CCP(=O)(N[C@@H](C)C(=O)OCc1ccccc1)N[C@@H](C)C(=O)OCc1ccccc1)CO` [14d, Dibenzyl 2,2′-((((E)-5-hydroxy-4-methylpent-3-en-1-yl)phosphoryl)bis(azanediyl))(2S,2′S)-dipropionate], the “Activation of Vγ9/Vδ2 T cells at the highest concentration studied” value (Vγ9/Vδ2 T cells [1]) was “less than that achieved with 10 μM”, the EC50 (Vγ9/Vδ2 T cells [1]) was 27 nM and the “sensitizing effect for killing of T24 cells by Vγ9/Vδ2 T cells” value (T24 cells) was “much more potent”.
